Measurements reported in patent publication US20080085871A1, “Novel polysaccharide pro-drug 5-fluorouracil (5-FU) with enhanced target specificity for colorectal cancer and its preparation methods” (priority 2006, published 2008).

Key:
[1] = Distribution of 5-FU in different parts of the GI tract after oral feeding to mice; format: in vivo; set-up: key to 5-FU (μg/g) Stomach / 5-FU (μg/g) Proximal Small Intestine / 5-FU (μg/g) Distal Small Intestine / 5-FU (μg/g) Ileum and Cecum / 5-FU (μg/g) Colon and Rectum: —: dashed lines represent undetectable levels of 5-FU; conditions: for 5-FU (μg/g) Colon and Rectum / 5-FU (μg/g) Distal Small Intestine / 5-FU (μg/g) Ileum and Cecum / 5-FU (μg/g) Proximal Small Intestine / 5-FU (μg/g) Stomach: oral 22.5 mg/kg, n = 6, x ± s
Text: Note that the dashed lines represent undetectable levels of 5-FU.

[2] = system: normal mice; test: Survival of normal mice after 7-day treatment (toxicological effects); format: in vivo; conditions: for Survival Rate (%) after 7-day Treatment / Survivors/total after 7-day Treatment: normal mice, n = 10
Procedure: Normal mice are administered with 7.5, 22.5, or 67.5 mg/kg/d of 5-FU and the 5-FU prodrug (as equivalent 5-FU dose). […]

[3] = system: mice with colorectal cancer induced by DMH-DSS; test: Therapeutic effects on mice with colorectal cancer induced by DMH-DSS; format: in vivo; conditions: 22.5 mg/kg/d equivalent 5-FU, two 7-day treatment periods with 7 days rest (21 days)
Text: The doses delivered are equivalent with 1 time per day for 7 days as one treatment period, and then another period of treatment after 7 days of rest (i.e., a total of 21 days, two treatment periods with one week of rest in between).

[4] = system: COLO-205 cell; test: In vitro suppression of COLO-205 cell proliferation; format: cell-based; conditions: Homo sapiens, details not enclosed, read-out: IC50 for suppressing COLO-205 cell proliferation
Text: (§1) However, it should be understood that the 5-FU prodrug exerts its efficacy after it is digested and hydrolyzed at the target sites in the body. Because it is a prodrug, it has no direct effect on in vitro colorectal cancer cell lines.

[5] = system: HT-29 cell; test: In vitro suppression of HT-29 cell proliferation; format: cell-based; conditions: Homo sapiens, details not enclosed, read-out: IC50 for suppressing HT-29 cell proliferation
Text: as §1

[6] = 7.5 mg/kg/d (equivalent 5-FU dose)
[7] = 22.5 mg/kg/d (equivalent 5-FU dose)
[8] = 67.5 mg/kg/d (equivalent 5-FU dose)

In the case of O=c1[nH]cc(F)c(=O)[nH]1 [Example 5-FU, 5-fluorouracil], the “main site of distribution / detection in the GI tract” value ([1]; fed orally) is reported as “mucosa of stomach and proximal part of the small intestine”, the “5-FU (μg/g) Colon and Rectum” value ([1]; 1 hr) is reported as “—” and the “5-FU (μg/g) Distal Small Intestine” value ([1]; 1 hr) is reported as 0.42 ± 0.21 µg/g. For the same compound, the “5-FU (μg/g) Ileum and Cecum” value ([1]; 1 hr) was “—”, the “5-FU (μg/g) Proximal Small Intestine” value ([1]; 1 hr) was 1.75 ± 0.24 µg/g and the “5-FU (μg/g) Stomach” value ([1]; 1 hr) was 3.04 ± 0.49 µg/g. For the same compound, the “5-FU (μg/g) Colon and Rectum” value ([1]; 2.5 hr) was 0.25 ± 0.12 µg/g, the “5-FU (μg/g) Distal Small Intestine” value ([1]; 2.5 hr) was 0.43 ± 0.24 µg/g and the “5-FU (μg/g) Ileum and Cecum” value ([1]; 2.5 hr) was 0.37 ± 0.12 µg/g. The “5-FU (μg/g) Proximal Small Intestine” value ([1]; 2.5 hr) was 0.64 ± 0.42 µg/g, the “5-FU (μg/g) Stomach” value ([1]; 2.5 hr) was 1.97 ± 0.31 µg/g and the “5-FU (μg/g) Colon and Rectum” value ([1]; 3.5 hr) was 0.41 ± 0.24 µg/g. The “5-FU (μg/g) Distal Small Intestine” value ([1]; 3.5 hr) was 0.62 ± 0.12 µg/g, the “5-FU (μg/g) Ileum and Cecum” value ([1]; 3.5 hr) was 0.42 ± 0.21 µg/g and the “5-FU (μg/g) Proximal Small Intestine” value ([1]; 3.5 hr) was 0.53 ± 0.32 µg/g. For the same compound, the “5-FU (μg/g) Stomach” value ([1]; 3.5 hr) was 1.12 ± 0.46 µg/g, the “5-FU (μg/g) Colon and Rectum” value ([1]; 4.5 hr) was 0.56 ± 0.06 µg/g and the “5-FU (μg/g) Distal Small Intestine” value ([1]; 4.5 hr) was 0.35 ± 0.21 µg/g. The “5-FU (μg/g) Ileum and Cecum” value ([1]; 4.5 hr) was 0.37 ± 0.12 µg/g, the “5-FU (μg/g) Proximal Small Intestine” value ([1]; 4.5 hr) was 0.42 ± 0.91 µg/g and the “5-FU (μg/g) Stomach” value ([1]; 4.5 hr) was 0.97 ± 0.23 µg/g. For the same compound, the “5-FU (μg/g) Colon and Rectum” value ([1]; 6 hr) was 0.17 ± 0.04 µg/g, the “5-FU (μg/g) Distal Small Intestine” value ([1]; 6 hr) was 0.31 ± 0.09 µg/g and the “5-FU (μg/g) Ileum and Cecum” value ([1]; 6 hr) was 0.21 ± 0.11 µg/g. The “5-FU (μg/g) Proximal Small Intestine” value ([1]; 6 hr) was 0.37 ± 0.05 µg/g, the “5-FU (μg/g) Stomach” value ([1]; 6 hr) was 0.63 ± 0.31 µg/g and the “5-FU (μg/g) Colon and Rectum” value ([1]; 9 hr) was 0.08 ± 0.05 µg/g. The “5-FU (μg/g) Distal Small Intestine” value ([1]; 9 hr) was 0.17 ± 0.06 µg/g, the “5-FU (μg/g) Ileum and Cecum” value ([1]; 9 hr) was 0.03 ± 0.01 µg/g and the “5-FU (μg/g) Proximal Small Intestine” value ([1]; 9 hr) was 0.17 ± 0.04 µg/g. The “5-FU (μg/g) Stomach” value ([1]; 9 hr) was 0.33 ± 0.18 µg/g, the “5-FU (μg/g) Colon and Rectum” value ([1]; 12 hr) was 0.05 ± 0.02 µg/g and the “5-FU (μg/g) Distal Small Intestine” value ([1]; 12 hr) was 0.07 ± 0.04 µg/g. For the same compound, the “5-FU (μg/g) Ileum and Cecum” value ([1]; 12 hr) was 0.04 ± 0.02 µg/g, the “5-FU (μg/g) Proximal Small Intestine” value ([1]; 12 hr) was 0.03 ± 0.01 µg/g and the “5-FU (μg/g) Stomach” value ([1]; 12 hr) was 0.06 ± 0.03 µg/g. For the same compound, the “5-FU (μg/g) Colon and Rectum” value ([1]; 15 hr) was “—”, the “5-FU (μg/g) Distal Small Intestine” value ([1]; 15 hr) was “—” and the “5-FU (μg/g) Ileum and Cecum” value ([1]; 15 hr) was “—”. The “5-FU (μg/g) Proximal Small Intestine” value ([1]; 15 hr) was “—”, the “5-FU (μg/g) Stomach” value ([1]; 15 hr) was “—” and the “Survival Rate (%) after 7-day Treatment” value [2, 6] was 100%. For the same compound, the “Survivors/total after 7-day Treatment” value [2, 6] was “(10/10)”, the “Survival Rate (%) after 7-day Treatment” value [2, 7] was 70% and the “Survivors/total after 7-day Treatment” value [2, 7] was “(7/10)”. For the same compound, the “Survival Rate (%) after 7-day Treatment” value [2, 8] was 0%, the “Survivors/total after 7-day Treatment” value [2, 8] was “(0/10)” and the “toxic effects in the first dose” value ([2]; normal mice, 7.5, 22.5, or 67.5 mg/kg/d, first dose) was “no obvious toxic effects”. The “Survival at the End of the Study” value ([3]; n = 10) was 5/10, the “Survival Rate” value ([3]; n = 10, listed as Generic 5-Fluorouracil (5-FU)) was 50% and the “Survival Rate” value ([3]; n = 10, listed as generic 5-FU) was 50%. For the same compound, the “Tumor Weight Index” value ([3]; x ± s) was 447 ± 113.5 mg/g, the “Tumor Weight as Compared to the Saline Control” value ([3]; listed as Generic 5-Fluorouracil (5-FU)) was 65% and the “Tumor Weight as Compared to the Saline Control” value ([3]; listed as generic 5-FU) was 65%. The IC50 [4] was 3.2 µM and the IC50 [5] was 13 µM.
